Measurements as given in the supplement of paper PMC10331698.
± gives the standard deviation of the averaged measurements.

Experiments:
Assay in all cases: level (log10 ratio to DMSO vehicle control); higher = higher biomarker level / cell amount than vehicle control
[1] = compound: OCCCC(F)(F)C(F)(F)C(F)(F)C(F)(F)C(F)(F)C(F)(F)C(F)(F)F [7:3 Fluorotelomer alcohol]; details: 6700 nM; in DMSO
Procedure: (§1)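 BioMAP Diversity Plus panel of 12 human primary cell co-culture systems (3C, 4H, LPS, SAg, BT, BF4T, BE3C, CASM3C, HDF3CGF, KF3CT, MyoF, Mphg). Compounds were added 1 h before stimulation and left for 24 h (MyoF 48 h; BT 72 h for soluble read-outs or 6 d for IgG). Biomarkers were read by ELISA, cytotoxicity by SRB, PBMC viability and proliferation by Alamar Blue. Each well value was divided by the mean of 8 DMSO control wells on the same plate and log10 transformed; duplicate blinded samples were tested at 4 concentrations.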

[2] = compound: O=C(O)C(F)(F)C(F)(F)C(F)(F)F [Perfluorobutanoic acid]; details: in DMSO
Procedure: as §1

[3] = compound: NC(=O)C(F)(F)C(F)(F)F [Pentafluoropropionamide]; details: in DMSO
Procedure: as §1

[4] = compound: FC(F)C(F)(F)COCC1CO1 [((2,2,3,3-Tetrafluoropropoxy)methyl)oxirane]; details: in DMSO
Procedure: as §1

[5] = compound: O=C(O)C(F)(F)C(F)(F)F [Perfluoropropanoic acid]; details: in DMSO
Procedure: as §1

[6] = compound: O=C(O)C(F)(F)C(F)(F)C(F)(F)OC(F)(C(F)(F)F)C(F)(F)F [Perfluoro-4-isopropoxybutanoic acid]; details: in DMSO
Procedure: as §1

[7] = compound: O=C(O)C(F)(F)C(F)(F)C(F)(F)C(F)(F)C(F)(F)C(F)(F)F [Perfluoroheptanoic acid]; details: in DMSO
Procedure: as §1

Row | Test System | level (log10) [1] | level (log10) ([2]; 6700 nM) | level (log10) ([2]; 20000 nM) | level (log10) ([2]; 60000 nM) | level (log10) ([3]; 6700 nM) | level (log10) ([3]; 20000 nM) | level (log10) ([3]; 60000 nM) | level (log10) ([4]; 6700 nM) | level (log10) ([4]; 20000 nM) | level (log10) ([4]; 60000 nM) | level (log10) ([5]; 6700 nM) | level (log10) ([5]; 20000 nM) | level (log10) ([5]; 60000 nM) | level (log10) ([6]; 6700 nM) | level (log10) ([6]; 20000 nM) | level (log10) ([6]; 60000 nM) | level (log10) ([7]; 6700 nM) | level (log10) ([7]; 20000 nM) | level (log10) ([7]; 60000 nM)
1 | 4H:CCL26/Eotaxin-3 | 0.005 ± 0.014 | -0.0135 ± 0.016 | -0.007 ± 0.024 | 0.015 ± 0.018 | -0.001 ± 0.013 | -0.0015 ± 0.013 | 0.0065 ± 0.026 | 0.0035 ± 0.0078 | 0 ± 0.041 | 0.014 ± 0.05 | -0.0115 ± 0.0092 | -0.0045 ± 0.012 | -0.015 ± 0.017 | 0.0175 ± 0.042 | -0.023 ± 0.0057 | -0.0135 ± 0.00071 | 0.0055 ± 0.0064 | 0.0045 ± 0.0092 | -0.015 ± 0.0085
2 | 4H:CD62P/P-selectin | 0.04 ± 0.027 | 0.086 ± 0.076 | 0.0575 ± 0.0035 | 0.09 ± 0.054 | -0.023 ± 0.054 | -0.0265 ± 0.0078 | -0.0475 ± 0.03 | 0.0275 ± 0.043 | -0.0285 ± 0.087 | -0.051 ± 0.071 | -0.0215 ± 0.0021 | -0.012 ± 0.0042 | 0.0105 ± 0.026 | 0.001 ± 0.021 | 0.0165 ± 0.012 | 0.048 ± 0.033 | 0.007 ± 0.018 | 0.0035 ± 0.016 | 0.0605 ± 0.05
3 | 4H:CD87/uPAR | 0.0105 ± 0.015 | -0.013 ± 0.0071 | -0.0125 ± 0.029 | -0.041 ± 0.0071 | 0.009 ± 0.02 | -0.0185 ± 0.00071 | -0.009 ± 0.0099 | -0.013 | -0.0205 ± 0.03 | -0.012 ± 0.0042 | -0.0325 ± 0.025 | -0.014 ± 0.011 | 0.0085 ± 0.016 | -0.004 ± 0.03 | -0.013 ± 0.0028 | -0.0075 ± 0.0035 | 0.0355 ± 0.042 | -0.007 ± 0.054 | 0.061 ± 0.14
4 | 4H:CD106/VCAM-1 | 0.019 ± 0.013 | -0.0165 ± 0.0092 | -0.021 ± 0.0042 | -0.001 ± 0.013 | -0.02 | -0.011 ± 0.03 | 0.0015 ± 0.0092 | 0.01 ± 0.013 | -0.017 ± 0.0042 | -0.023 ± 0.017 | -0.0085 ± 0.011 | -0.0075 ± 0.00071 | 0 ± 0.014 | 0.0075 ± 0.011 | -0.019 ± 0.0028 | -0.011 ± 0.025 | 0.0215 ± 0.035 | 0.0045 ± 0.049 | 0.007 ± 0.017
5 | 4H:SRB | -0.0015 ± 0.0064 | -0.02 ± 0.044 | -0.0115 ± 0.0035 | -0.007 ± 0.024 | -0.0055 ± 0.021 | -0.0095 ± 0.0078 | -0.0135 ± 0.016 | -0.015 ± 0.0085 | -0.003 ± 0.0042 | -0.012 ± 0.027 | 0 ± 0.0028 | -0.002 ± 0.0071 | 0.0095 ± 0.0092 | -0.0085 ± 0.021 | -0.008 ± 0.023 | -0.0275 ± 0.019 | -0.0035 ± 0.005 | 0.0135 ± 0.026 | -0.024 ± 0.021
6 | 4H:VEGFR2 | 0.014 ± 0.017 | -0.025 ± 0.021 | -0.0105 ± 0.005 | 0.004 ± 0.013 | 0.032 ± 0.014 | 0.034 ± 0.027 | 0.072 ± 0.031 | 0.0095 ± 0.04 | 0.0065 ± 0.033 | -0.0085 ± 0.026 | -0.0375 ± 0.026 | -0.011 ± 0.04 | 0.049 ± 0.042 | -0.0575 ± 0.015 | -0.056 ± 0.037 | -0.0215 ± 0.088 | 0.016 ± 0.027 | 0.022 ± 0.013 | 0.012 ± 0.054
7 | BE3C:CD54/ICAM-1 | -0.0125 ± 0.00071 | -0.0015 ± 0.023 | -0.0165 ± 0.0092 | 0.011 ± 0.025 | -0.0045 ± 0.0021 | 0.002 ± 0.0028 | -0.0055 ± 0.00071 | 0.011 ± 0.011 | -0.0035 ± 0.0092 | 0.011 ± 0.027 | -0.025 ± 0.017 | 0 ± 0.0014 | 0.007 ± 0.016 | -0.0095 ± 0.022 | -0.014 ± 0.024 | -0.0245 ± 0.005 | -0.007 ± 0.0071 | -0.023 ± 0.0028 | -0.0055 ± 0.022
8 | BE3C:CD87/uPAR | 0.0185 ± 0.03 | -0.012 ± 0.0099 | 0.0015 ± 0.013 | -0.015 ± 0.013 | 0.0115 ± 0.042 | -0.025 ± 0.0057 | -0.0145 ± 0.022 | -0.016 ± 0.018 | -0.017 ± 0.028 | -0.0135 ± 0.022 | -0.018 ± 0.0085 | -0.026 ± 0.0085 | 0.01 ± 0.0014 | -0.016 ± 0.033 | 0.001 ± 0.031 | 0.0275 ± 0.035 | -0.0275 ± 0.026 | -0.049 ± 0.033 | -0.05 ± 0.054
